Measured values from ChEMBL document CHEMBL1649488, “In vitro activities of echinocandins against Candida krusei determined by three methods: MIC and minimal fungicidal concentration measurements and time-kill studies” (2009).
In brackets after ≈: the same amount, converted by molar mass. Activity calls are given as the source filed them. The rule behind the calls is not given here.

What was measured:
Format in all cases: functional
Pichia kudriavzevii [1] = assay: Antifungal activity against Candida krusei ATCC 6258 bloodstream forms assessed as minimum concentration producing >= 100% growth reduction after 24 hrs by M27-A3 microdilution method; conditions: ATCC 6258, 24 h
Pichia kudriavzevii [2] = assay: Fungicidal activity against Candida krusei ATCC 6258 bloodstream forms after 48 hrs by M27-A3 microdilution method
Pichia kudriavzevii [3] = assay: Antifungal activity against Candida krusei ATCC 6258 bloodstream forms assessed as minimum concentration producing >= 50% growth reduction after 24 hrs by M27-A3 microdilution method; conditions: ATCC 6258, 24 h
Pichia kudriavzevii [4] = assay: Antifungal activity against Candida krusei CK1 bloodstream forms after 24 hrs by time-kill analysis; conditions: CK1, 24 h
Pichia kudriavzevii [5] = assay: Fungicidal activity against Candida krusei CK1 bloodstream forms after 24 hrs by time-kill analysis; conditions: CK1, 24 h
Pichia kudriavzevii [6] = assay: Antifungal activity against Candida krusei CK2 bloodstream forms after 24 hrs by time-kill analysis; conditions: CK2, 24 h
Pichia kudriavzevii [7] = assay: Fungicidal activity against Candida krusei CK2 bloodstream forms after 24 hrs by time-kill analysis; conditions: CK2, 24 h
Pichia kudriavzevii [8] = assay: Antifungal activity against Candida krusei CK6 bloodstream forms after 24 hrs by time-kill analysis; conditions: CK6, 24 h
Pichia kudriavzevii [9] = assay: Fungicidal activity against Candida krusei CK6 bloodstream forms after 24 hrs by time-kill analysis; conditions: CK6, 24 h
Pichia kudriavzevii [10] = assay: Antifungal activity against Candida krusei CK18 bloodstream forms after 24 hrs by time-kill analysis; conditions: CK18, 24 h
Pichia kudriavzevii [11] = assay: Fungicidal activity against Candida krusei CK18 bloodstream forms after 24 hrs by time-kill analysis; conditions: CK18, 24 h
Pichia kudriavzevii [12] = assay: Antifungal activity against Candida krusei EU123 bloodstream forms after 24 hrs by time-kill analysis; conditions: EU123, 24 h
Pichia kudriavzevii [13] = assay: Fungicidal activity against Candida krusei EU123 bloodstream forms after 24 hrs by time-kill analysis; conditions: EU123, 24 h
Pichia kudriavzevii [14] = assay: Antifungal activity against Candida krusei EU220 bloodstream forms after 24 hrs by time-kill analysis; conditions: EU220, 24 h
Pichia kudriavzevii [15] = assay: Fungicidal activity against Candida krusei EU220 bloodstream forms after 24 hrs by time-kill analysis; conditions: EU220, 24 h
Pichia kudriavzevii [16] = assay: Antifungal activity against Candida krusei CY118 bloodstream forms after 24 hrs by time-kill analysis; conditions: CY118, 24 h
Pichia kudriavzevii [17] = assay: Fungicidal activity against Candida krusei CY118 bloodstream forms after 24 hrs by time-kill analysis; conditions: CY118, 24 h
Pichia kudriavzevii [18] = assay: Antifungal activity against Candida krusei ATCC 6258 bloodstream forms after 24 hrs by time-kill analysis; conditions: ATCC 6258, 24 h
Pichia kudriavzevii [19] = assay: Fungicidal activity against Candida krusei ATCC 6258 bloodstream forms after 24 hrs by time-kill analysis; conditions: ATCC 6258, 24 h
Pichia kudriavzevii [20] = assay: Antifungal activity against Candida krusei ATCC 6258 bloodstream forms assessed as time to achieve 50% fungal growth reduction at 0.12 mg/L by time-kill analysis
Pichia kudriavzevii [21] = assay: Antifungal activity against Candida krusei ATCC 6258 bloodstream forms assessed as time to achieve 90% fungal growth reduction at 0.12 mg/L by time-kill analysis
Pichia kudriavzevii [22] = assay: Antifungal activity against Candida krusei ATCC 6258 bloodstream forms assessed as time to achieve 99% fungal growth reduction at 0.12 mg/L by time-kill analysis
Pichia kudriavzevii [23] = assay: Antifungal activity against Candida krusei ATCC 6258 bloodstream forms assessed as time to achieve 99.9% fungal growth reduction at 0.12 mg/L by time-kill analysis
Pichia kudriavzevii [24] = assay: Antifungal activity against Candida krusei ATCC 6258 bloodstream forms assessed as time to achieve 50% fungal growth reduction at 0.5 mg/L by time-kill analysis
Pichia kudriavzevii [25] = assay: Antifungal activity against Candida krusei ATCC 6258 bloodstream forms assessed as time to achieve 90% fungal growth reduction at 0.5 mg/L by time-kill analysis
Pichia kudriavzevii [26] = assay: Antifungal activity against Candida krusei ATCC 6258 bloodstream forms assessed as time to achieve 99% fungal growth reduction at 0.5 mg/L by time-kill analysis
Pichia kudriavzevii [27] = assay: Antifungal activity against Candida krusei ATCC 6258 bloodstream forms assessed as time to achieve 99.9% fungal growth reduction at 0.5 mg/L by time-kill analysis
Pichia kudriavzevii [28] = assay: Antifungal activity against Candida krusei ATCC 6258 bloodstream forms assessed as time to achieve 50% fungal growth reduction at 2 mg/L by time-kill analysis
Pichia kudriavzevii [29] = assay: Antifungal activity against Candida krusei ATCC 6258 bloodstream forms assessed as time to achieve 90% fungal growth reduction at 2 mg/L by time-kill analysis
Pichia kudriavzevii [30] = assay: Antifungal activity against Candida krusei ATCC 6258 bloodstream forms assessed as time to achieve 99% fungal growth reduction at 2 mg/L by time-kill analysis
Pichia kudriavzevii [31] = assay: Antifungal activity against Candida krusei ATCC 6258 bloodstream forms assessed as time to achieve 99.9% fungal growth reduction at 2 mg/L by time-kill analysis
Pichia kudriavzevii [32] = assay: Antifungal activity against Candida krusei ATCC 6258 bloodstream forms assessed as time to achieve 50% fungal growth reduction at 8 mg/L by time-kill analysis
Pichia kudriavzevii [33] = assay: Antifungal activity against Candida krusei ATCC 6258 bloodstream forms assessed as time to achieve 90% fungal growth reduction at 8 mg/L by time-kill analysis
Pichia kudriavzevii [34] = assay: Antifungal activity against Candida krusei ATCC 6258 bloodstream forms assessed as time to achieve 99% fungal growth reduction at 8 mg/L by time-kill analysis
Pichia kudriavzevii [35] = assay: Antifungal activity against Candida krusei ATCC 6258 bloodstream forms assessed as time to achieve 99.9% fungal growth reduction at 8 mg/L by time-kill analysis
Pichia kudriavzevii [36] = assay: Antifungal activity against Candida krusei ATCC 6258 bloodstream forms assessed as time to achieve 50% fungal growth reduction at 32 mg/L by time-kill analysis
Pichia kudriavzevii [37] = assay: Antifungal activity against Candida krusei ATCC 6258 bloodstream forms assessed as time to achieve 90% fungal growth reduction at 32 mg/L by time-kill analysis
Pichia kudriavzevii [38] = assay: Antifungal activity against Candida krusei ATCC 6258 bloodstream forms assessed as time to achieve 99% fungal growth reduction at 32 mg/L by time-kill analysis
Pichia kudriavzevii [39] = assay: Antifungal activity against Candida krusei ATCC 6258 bloodstream forms assessed as time to achieve 99.9% fungal growth reduction at 32 mg/L by time-kill analysis
Pichia kudriavzevii [40] = assay: Antifungal activity against Candida krusei ATCC 6258 bloodstream forms assessed as minimum concentration producing >= 50% growth reduction after 48 hrs by M27-A3 microdilution method; conditions: ATCC 6258, 48 h
Pichia kudriavzevii [41] = assay: Antifungal activity against Candida krusei ATCC 6258 bloodstream forms assessed as minimum concentration producing >= 100% growth reduction after 48 hrs by M27-A3 microdilution method; conditions: ATCC 6258, 48 h

Work on `CC[C@H](C)C[C@H](C)CCCCCCCCC(=O)N[C@H]1C[C@@H](O)[C@@H](NCCN)NC(=O)[C@@H]2[C@@H](O)CCN2C(=O)[C@H]([C@H](O)CCN)NC(=O)[C@H]([C@H](O)[C@@H](O)c2ccc(O)cc2)NC(=O)[C@@H]2C[C@@H](O)CN2C(=O)[C@H]([C@@H](C)O)NC1=O` [CASPOFUNGIN] yielded an MIC50 (Pichia kudriavzevii [1]) of 1 µg/mL (≈ 0.915 µM), an MIC90 (Pichia kudriavzevii [1]) of 2 µg/mL (≈ 1.83 µM) and an MFC50 (Pichia kudriavzevii [2]) of 2 µg/mL (≈ 1.83 µM). For the same molecule, the MFC90 (Pichia kudriavzevii [2]) was 8 µg/mL (≈ 7.32 µM), the MFC (Pichia kudriavzevii [2]; Pichia kudriavzevii, ATCC 6258, 48 h) was 1 µg/mL (≈ 0.915 µM) and the MIC50 (Pichia kudriavzevii [3]) was 1 µg/mL (≈ 0.915 µM). It also gave an MIC90 (Pichia kudriavzevii [3]) of 2 µg/mL (≈ 1.83 µM), an MIC (Pichia kudriavzevii [4]) of 1 µg/mL (≈ 0.915 µM) and an MFC (Pichia kudriavzevii [5]) of 8 µg/mL (≈ 7.32 µM). It also gave an MIC (Pichia kudriavzevii [6]) of 1 µg/mL (≈ 0.915 µM), an MFC (Pichia kudriavzevii [7]) of 1 µg/mL (≈ 0.915 µM) and an MIC (Pichia kudriavzevii [8]) of 1 µg/mL (≈ 0.915 µM). The MFC (Pichia kudriavzevii [9]) was 1 µg/mL (≈ 0.915 µM), the MIC (Pichia kudriavzevii [10]) was 1 µg/mL (≈ 0.915 µM) and the MFC (Pichia kudriavzevii [11]) was 2 µg/mL (≈ 1.83 µM). For the same molecule, the MIC (Pichia kudriavzevii [12]) was 2 µg/mL (≈ 1.83 µM), the MFC (Pichia kudriavzevii [13]) was 2 µg/mL (≈ 1.83 µM) and the MIC (Pichia kudriavzevii [14]) was 2 µg/mL (≈ 1.83 µM). The MFC (Pichia kudriavzevii [15]) was 2 µg/mL (≈ 1.83 µM), the MIC (Pichia kudriavzevii [16]) was 4 µg/mL (≈ 3.66 µM) and the MFC (Pichia kudriavzevii [17]) was > 64 µg/mL. The MIC (Pichia kudriavzevii [18]) was 1 µg/mL (≈ 0.915 µM), the MFC (Pichia kudriavzevii [19]) was 2 µg/mL (≈ 1.83 µM) and the Activity (Pichia kudriavzevii [20]) was “inactive”. The Activity (Pichia kudriavzevii [21]) was “inactive”, the Activity (Pichia kudriavzevii [22]) was “inactive” and the Activity (Pichia kudriavzevii [23]) was “inactive”. For the same molecule, the Time (Pichia kudriavzevii [24]) was 8.3 h, the Time (Pichia kudriavzevii [25]) was 27.6 h and the Time (Pichia kudriavzevii [26]) was >48 h. The Time (Pichia kudriavzevii [27]) was >48 h, the Time (Pichia kudriavzevii [28]) was 3.7 h and the Time (Pichia kudriavzevii [29]) was 12.5 h. For the same molecule, the Time (Pichia kudriavzevii [30]) was 24.9 h, the Time (Pichia kudriavzevii [31]) was 37.4 h and the Time (Pichia kudriavzevii [32]) was 2.9 h. For the same molecule, the Time (Pichia kudriavzevii [33]) was 9.7 h, the Time (Pichia kudriavzevii [34]) was 19.5 h and the Time (Pichia kudriavzevii [35]) was 29.2 h. It also gave a Time (Pichia kudriavzevii [36]) of 2.1 h, a Time (Pichia kudriavzevii [37]) of 7.1 h and a Time (Pichia kudriavzevii [38]) of 14.3 h. It also gave a Time (Pichia kudriavzevii [39]) of 21.4 h, an MIC50 (Pichia kudriavzevii [40]) of 1 µg/mL (≈ 0.915 µM) and an MIC90 (Pichia kudriavzevii [40]) of 2 µg/mL (≈ 1.83 µM). It also gave an MIC (Pichia kudriavzevii [41]) of 0.8 µg/mL (≈ 0.732 µM), an MIC50 (Pichia kudriavzevii [41]) of 1 µg/mL (≈ 0.915 µM) and an MIC90 (Pichia kudriavzevii [41]) of 2 µg/mL (≈ 1.83 µM).
